# Measurements published in ChEMBL document CHEMBL3885881, “DrugMatrix”.
# Species: Rattus norvegicus
# Test: DrugMatrix - Regimen: Daily Repeat
# Assay type: toxicity, organism-based, Sprague-Dawley
# Set-up: regimen Daily Repeat, gender Male, age 6-8 weeks
# Conditions: in vivo, po, route oral GAVAGE, […]; for ABSOLUTE BASOPHIL / BASOPHIL / EOSINOPHIL / NUCLEATED RED BLOOD CELLS / MONOCYTE / ABSOLUTE EOSINOPHIL / ABSOLUTE LYMPHOCYTE / ABSOLUTE MONOCYTE / ABSOLUTE SEGMENTED NEUTROPHIL / ERYTHROCYTE COUNT / HEMATOCRIT / HEMOGLOBIN / LEUKOCYTE COUNT / LYMPHOCYTE / MEAN CORPUSCULAR HEMOGLOBIN / MEAN CORPUSCULAR HEMOGLOBIN CONCENTRATION / MEAN CORPUSCULAR VOLUME / NEUTROPHIL / PLATELET COUNT: tissue Blood; for TOTAL BILIRUBIN / URIC ACID / ALANINE AMINOTRANSFERASE / ALBUMIN / ALKALINE PHOSPHATASE / ASPARTATE AMINOTRANSFERASE / BLOOD UREA NITROGEN / CARBON DIOXIDE / CHLORIDE / CHOLESTEROL / CREATINE PHOSPHOKINASE / CREATININE / GLUCOSE / LACTATE DEHYDROGENASE / LIPASE / PHOSPHORUS / POTASSIUM / SODIUM / TOTAL PROTEIN: tissue Plasma
# [1] = 0 mg/kg, 72 h, dose level Control, time 3 day
# [2] = 0 mg/kg, 120 h, dose level Control, time 5 day
# [3] = 10 mg/kg, 72 h, dose level M1, time 3 day
# [4] = 10 mg/kg, 120 h, dose level M1, time 5 day
# [5] = 650 mg/kg, 72 h, dose level High, time 3 day
# [6] = 650 mg/kg, 120 h, dose level High, time 5 day
# [7] = 72 h, dose 6.5 mg/Kg, dose level Low, time 3 day
# [8] = 120 h, dose 6.5 mg/Kg, dose level Low, time 5 day
smiles,measurement,setting,value
O=C(c1ccc(OCCN2CCCCC2)cc1)c1c(-c2ccc(O)cc2)sc2cc(O)ccc12 [RALOXIFENE],ABSOLUTE BASOPHIL,[1],0 CELLS/uL
same,BASOPHIL,[1],0%
same,EOSINOPHIL,[1],0.17%
same,NUCLEATED RED BLOOD CELLS,[1],0 /100WBC
same,ABSOLUTE BASOPHIL,[2],0 CELLS/uL
same,BASOPHIL,[2],0%
same,MONOCYTE,[2],1.17%
same,TOTAL BILIRUBIN,[2],0.1 mg/dL
same,URIC ACID,[2],0.52 mg/dL
same,ABSOLUTE BASOPHIL,[3],0 CELLS/uL
same,ABSOLUTE EOSINOPHIL,[3],29.33 CELLS/uL
same,ABSOLUTE LYMPHOCYTE,[3],7440 CELLS/uL
same,ABSOLUTE MONOCYTE,[3],116 CELLS/uL
same,ABSOLUTE SEGMENTED NEUTROPHIL,[3],681.33 CELLS/uL
same,BASOPHIL,[3],0%
same,EOSINOPHIL,[3],0.33%
same,ERYTHROCYTE COUNT,[3],5.44 x10E6/uL
same,HEMATOCRIT,[3],34.47%
same,HEMOGLOBIN,[3],13.3 G/DL
same,LEUKOCYTE COUNT,[3],8.27 x10E3/uL
same,LYMPHOCYTE,[3],90.33%
same,MEAN CORPUSCULAR HEMOGLOBIN,[3],24.53 pg
same,MEAN CORPUSCULAR HEMOGLOBIN CONCENTRATION,[3],38.6 G/DL
same,MEAN CORPUSCULAR VOLUME,[3],63.53 fL
same,MONOCYTE,[3],1.33%
same,NEUTROPHIL,[3],8%
same,NUCLEATED RED BLOOD CELLS,[3],0.33 /100WBC
same,PLATELET COUNT,[3],1223 x10E3/uL
same,ALANINE AMINOTRANSFERASE,[3],53.67 u/L
same,ALBUMIN,[3],4.43 G/DL
same,ALKALINE PHOSPHATASE,[3],398.33 u/L
same,ASPARTATE AMINOTRANSFERASE,[3],90.67 u/L
same,BLOOD UREA NITROGEN,[3],10 mg/dL
same,CARBON DIOXIDE,[3],31.67 mmol/L
same,CHLORIDE,[3],101.67 MEQ/L
same,CHOLESTEROL,[3],52.67 mg/dL
same,CREATINE PHOSPHOKINASE,[3],300.33 u/L
same,CREATININE,[3],0.24 mg/dL
same,GLUCOSE,[3],151.33 mg/dL
same,LACTATE DEHYDROGENASE,[3],123 u/L
same,LIPASE,[3],9.33 u/L
same,PHOSPHORUS,[3],10.93 mg/dL
same,POTASSIUM,[3],5.67 MEQ/L
same,SODIUM,[3],147.7 MEQ/L
same,TOTAL BILIRUBIN,[3],0.13 mg/dL
same,TOTAL PROTEIN,[3],6.5 G/DL
same,URIC ACID,[3],0.87 mg/dL
same,ABSOLUTE BASOPHIL,[4],0 CELLS/uL
same,ABSOLUTE EOSINOPHIL,[4],34 CELLS/uL
same,ABSOLUTE LYMPHOCYTE,[4],8594.67 CELLS/uL
same,ABSOLUTE MONOCYTE,[4],97 CELLS/uL
same,ABSOLUTE SEGMENTED NEUTROPHIL,[4],974.33 CELLS/uL
same,BASOPHIL,[4],0%
same,EOSINOPHIL,[4],0.33%
same,ERYTHROCYTE COUNT,[4],5.62 x10E6/uL
same,HEMATOCRIT,[4],34.3%
same,HEMOGLOBIN,[4],13.33 G/DL
same,LEUKOCYTE COUNT,[4],9.7 x10E3/uL
same,LYMPHOCYTE,[4],89%
same,MEAN CORPUSCULAR HEMOGLOBIN,[4],23.8 pg
same,MEAN CORPUSCULAR HEMOGLOBIN CONCENTRATION,[4],38.93 G/DL
same,MEAN CORPUSCULAR VOLUME,[4],61.13 fL
same,MONOCYTE,[4],1%
same,NEUTROPHIL,[4],9.67%
same,NUCLEATED RED BLOOD CELLS,[4],0 /100WBC
same,PLATELET COUNT,[4],1211.33 x10E3/uL
same,ALANINE AMINOTRANSFERASE,[4],42.33 u/L
same,ALBUMIN,[4],4.5 G/DL
same,ALKALINE PHOSPHATASE,[4],301.33 u/L
same,ASPARTATE AMINOTRANSFERASE,[4],77.67 u/L
same,BLOOD UREA NITROGEN,[4],9 mg/dL
same,CARBON DIOXIDE,[4],28.67 mmol/L
same,CHLORIDE,[4],102 MEQ/L
same,CHOLESTEROL,[4],50 mg/dL
same,CREATINE PHOSPHOKINASE,[4],198.67 u/L
same,CREATININE,[4],0.33 mg/dL
same,GLUCOSE,[4],168.33 mg/dL
same,LACTATE DEHYDROGENASE,[4],130.67 u/L
same,LIPASE,[4],8.33 u/L
same,PHOSPHORUS,[4],12.1 mg/dL
same,POTASSIUM,[4],4.86 MEQ/L
same,SODIUM,[4],146.9 MEQ/L
same,TOTAL BILIRUBIN,[4],0.1 mg/dL
same,TOTAL PROTEIN,[4],6.33 G/DL
same,URIC ACID,[4],0.77 mg/dL
same,ABSOLUTE BASOPHIL,[5],0 CELLS/uL
same,BASOPHIL,[5],0%
same,NUCLEATED RED BLOOD CELLS,[5],0 /100WBC
same,LIPASE,[5],10.33 u/L
same,URIC ACID,[5],0.67 mg/dL
same,ABSOLUTE BASOPHIL,[6],0 CELLS/uL
same,BASOPHIL,[6],0%
same,NUCLEATED RED BLOOD CELLS,[6],0 /100WBC
same,ABSOLUTE BASOPHIL,[7],0 CELLS/uL
same,ABSOLUTE EOSINOPHIL,[7],59.33 CELLS/uL
same,ABSOLUTE LYMPHOCYTE,[7],5494.67 CELLS/uL
same,ABSOLUTE MONOCYTE,[7],60.33 CELLS/uL
same,ABSOLUTE SEGMENTED NEUTROPHIL,[7],452.33 CELLS/uL
same,BASOPHIL,[7],0%
same,EOSINOPHIL,[7],0.67%
same,ERYTHROCYTE COUNT,[7],5.5 x10E6/uL
same,HEMATOCRIT,[7],35.2%
same,HEMOGLOBIN,[7],13.7 G/DL
same,LEUKOCYTE COUNT,[7],6.07 x10E3/uL
same,LYMPHOCYTE,[7],90.33%
same,MEAN CORPUSCULAR HEMOGLOBIN,[7],24.87 pg
same,MEAN CORPUSCULAR HEMOGLOBIN CONCENTRATION,[7],38.93 G/DL
same,MEAN CORPUSCULAR VOLUME,[7],63.93 fL
same,MONOCYTE,[7],1.33%
same,NEUTROPHIL,[7],7.67%
same,NUCLEATED RED BLOOD CELLS,[7],0.67 /100WBC
same,PLATELET COUNT,[7],1046.33 x10E3/uL
same,ALANINE AMINOTRANSFERASE,[7],63 u/L
same,ALBUMIN,[7],4.13 G/DL
same,ALKALINE PHOSPHATASE,[7],536.33 u/L
same,ASPARTATE AMINOTRANSFERASE,[7],92 u/L
same,BLOOD UREA NITROGEN,[7],8.67 mg/dL
same,CARBON DIOXIDE,[7],29.67 mmol/L
same,CHLORIDE,[7],98.33 MEQ/L
same,CHOLESTEROL,[7],41 mg/dL
same,CREATINE PHOSPHOKINASE,[7],405 u/L
same,CREATININE,[7],0.12 mg/dL
same,GLUCOSE,[7],157 mg/dL
same,LACTATE DEHYDROGENASE,[7],73.33 u/L
same,LIPASE,[7],9.67 u/L
same,PHOSPHORUS,[7],10.5 mg/dL
same,POTASSIUM,[7],5.24 MEQ/L
same,SODIUM,[7],143.33 MEQ/L
same,TOTAL BILIRUBIN,[7],0.13 mg/dL
same,TOTAL PROTEIN,[7],6.07 G/DL
same,URIC ACID,[7],0.63 mg/dL
same,ABSOLUTE BASOPHIL,[8],0 CELLS/uL
same,ABSOLUTE EOSINOPHIL,[8],0 CELLS/uL
same,ABSOLUTE LYMPHOCYTE,[8],6955.67 CELLS/uL
same,ABSOLUTE MONOCYTE,[8],124.33 CELLS/uL
same,ABSOLUTE SEGMENTED NEUTROPHIL,[8],286.67 CELLS/uL
same,BASOPHIL,[8],0%
same,EOSINOPHIL,[8],0%
same,ERYTHROCYTE COUNT,[8],5.53 x10E6/uL
same,HEMATOCRIT,[8],34.77%
same,HEMOGLOBIN,[8],13.37 G/DL
same,LEUKOCYTE COUNT,[8],7.37 x10E3/uL
same,LYMPHOCYTE,[8],94.33%
same,MEAN CORPUSCULAR HEMOGLOBIN,[8],24.17 pg
same,MEAN CORPUSCULAR HEMOGLOBIN CONCENTRATION,[8],38.47 G/DL
same,MEAN CORPUSCULAR VOLUME,[8],62.87 fL
same,MONOCYTE,[8],1.67%
same,NEUTROPHIL,[8],4%
same,NUCLEATED RED BLOOD CELLS,[8],0 /100WBC
same,PLATELET COUNT,[8],1226.67 x10E3/uL
same,ALANINE AMINOTRANSFERASE,[8],57 u/L
same,ALBUMIN,[8],4.1 G/DL
same,ALKALINE PHOSPHATASE,[8],411.67 u/L
same,ASPARTATE AMINOTRANSFERASE,[8],105.33 u/L
same,BLOOD UREA NITROGEN,[8],10.33 mg/dL
same,CARBON DIOXIDE,[8],28.33 mmol/L
same,CHLORIDE,[8],99.33 MEQ/L
same,CHOLESTEROL,[8],26 mg/dL
same,CREATINE PHOSPHOKINASE,[8],332.33 u/L
same,CREATININE,[8],0.19 mg/dL
same,GLUCOSE,[8],169 mg/dL
same,LACTATE DEHYDROGENASE,[8],99.67 u/L
same,LIPASE,[8],30 u/L
same,PHOSPHORUS,[8],11.23 mg/dL
same,POTASSIUM,[8],5.86 MEQ/L
same,SODIUM,[8],144.43 MEQ/L
same,TOTAL BILIRUBIN,[8],0.1 mg/dL
same,TOTAL PROTEIN,[8],5.87 G/DL
same,URIC ACID,[8],1 mg/dL
